Test results reported in ChEMBL document CHEMBL1158570, “Secondary metabolites from the roots of Litsea hypophaea and their antitubercular activity” (2010).
Values after ≈ are worked out from the molar mass of the structure shown.

Test system: Mycobacterium tuberculosis
Assay: Antimycobacterial activity against Mycobacterium tuberculosis H37Rv after 2 weeks
Type: functional
Settings: 336 h

Work on COc1cc(C2c3c(cc(OC)c(O)c3OC)C=C(C(=O)NCCc3ccc(O)cc3)C2C(=O)NCCc2ccc(O)cc2)cc(OC)c1O (configuration not stated) yielded an MIC greater than 100 µg/mL.
In the case of COc1cc(/C=C/C(=O)NCCc2ccc(O)c(OC)c2)ccc1O, the MIC is reported as 1.6 µg/mL (≈ 4.66 µM).
CC[C@@H](CO)NCCN[C@@H](CC)CO [ETHAMBUTOL] showed an MIC of 6.25 µg/mL (≈ 30.6 µM).
Compound COc1cc(OC)c(C[C@@H](O)Cc2ccc(OC)c(OC)c2)c(OC)c1 [HYPOPHAOL] has an MIC of 100 µg/mL (≈ 276 µM).
CCCCCCCCCCCCC/C=C1/C(=O)O[C@](C)(OC)[C@@H]1O [LITSEAKOLIDE L] showed an MIC of 25 µg/mL (≈ 73.4 µM).
Compound COc1cc(/C=C/C(=O)NCCc2ccc(O)cc2)ccc1O [N-TRANS-FERULOYL TYRAMINE] has an MIC of 60 µg/mL (≈ 191 µM).
COc1cc(/C=C/C(=O)NCCc2ccc(O)cc2)cc(OC)c1O [TRANS-N-SINAPOYLTYRAMINE] showed an MIC greater than 100 µg/mL.
